Test systems include CCRF-CEM leukemia; MALME-3M melanoma; HOP-92 NSCLC; UO-31 renal; CAKI-1 renal; TK-10 renal; HT29 colon; UACC-257 melanoma; OVCAR-4 ovarian; HCT-116 colon.
What all share (experiment): NCI-60 cell line screen, 48 h

Each structure is given as a SMILES string. Several values for one entry are separate records, joined by “and”; a condition that tells them apart may be missing. Equal entries are not always repeated.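 All cell lines were grown in 96-well plates and treated with compound for 48 hours. At the GI50, growth is halved. TGI: concentration producing complete growth inhibition.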

With `O=C(O)C(O)C(O)C1[O][Sb][O]C1CO` (stereo not given), the GI50 in the test with CCRF-CEM leukemia was 33.3 µM and 18.9 µM; with MALME-3M melanoma, 23.6 µM and 7.62 µM; with HOP-92 NSCLC it was more than 100 µM; with UO-31 renal, more than 100 µM; in the test on CAKI-1 renal, more than 100 µM; in the test with TK-10 renal, more than 100 µM. For the same compound, the GI50 in the test with HT29 colon, in the test on UACC-257 melanoma, with OVCAR-4 ovarian and in the test with HCT-116 colon was more than 100 µM in each case. The TGI in the test on CCRF-CEM leukemia is more than 100 µM; in the test with MALME-3M melanoma, 68.3 µM and 23.6 µM; with HOP-92 NSCLC, more than 100 µM; in the test on UO-31 renal, more than 100 µM; in the test on CAKI-1 renal it was more than 100 µM; with TK-10 renal, more than 100 µM. Also, the TGI in the test with HT29 colon, with UACC-257 melanoma, with OVCAR-4 ovarian and in the test with HCT-116 colon was more than 100 µM in each case.

As for `Nc1nc(Cl)cc(NCCCCCCCCCCNc2cc(Cl)nc(N)n2)n1`, the TGI with CCRF-CEM leukemia, in the test on HOP-92 NSCLC, with UO-31 renal, in the test on CAKI-1 renal, in the test on TK-10 renal and in the test on HT29 colon was more than 100 µM each time. Also, the TGI in the test on UACC-257 melanoma, with OVCAR-4 ovarian and in the test with HCT-116 colon was more than 100 µM each time.

On to `O=C(O)C1C2CC3CC2CC31` (stereo not given), for which the TGI with CCRF-CEM leukemia, in the test with MALME-3M melanoma, with HOP-92 NSCLC, in the test on UO-31 renal, in the test on CAKI-1 renal and in the test on TK-10 renal was more than 100 µM each time. Besides, the TGI with UACC-257 melanoma, in the test with OVCAR-4 ovarian and with HCT-116 colon was more than 100 µM in each case.

As for `c1ccc(CN(Cc2ccccn2)Cn2cccn2)nc1`, the TGI with CCRF-CEM leukemia, in the test on HOP-92 NSCLC, in the test on UO-31 renal, in the test on CAKI-1 renal, with TK-10 renal and in the test on UACC-257 melanoma was more than 100 µM in each case. The TGI was more than 100 µM in the test on OVCAR-4 ovarian and 63.7 µM in the test on HCT-116 colon.

On to `COCCOC(=O)CCn1cc(F)c(=O)[nH]c1=O`, for which the GI50 with CCRF-CEM leukemia was 16 µg/mL; in the test with MALME-3M melanoma it was more than 150 µg/mL; with HOP-92 NSCLC, 77.6 µg/mL; with UO-31 renal, 1.82 µg/mL; in the test on CAKI-1 renal it was 4.07 µg/mL; in the test on TK-10 renal it was 6.77 µg/mL. Besides, the GI50 in the test on HT29 colon was 4.55 µg/mL; in the test with UACC-257 melanoma, 26.5 µg/mL; in the test with OVCAR-4 ovarian, 20.4 µg/mL; in the test on HCT-116 colon, 4.54 µg/mL. Further, the TGI with CCRF-CEM leukemia, in the test on MALME-3M melanoma, in the test on HOP-92 NSCLC, in the test on UO-31 renal, in the test with CAKI-1 renal and in the test with TK-10 renal was more than 150 µg/mL each time. Besides, the TGI with HT29 colon, with UACC-257 melanoma, in the test on OVCAR-4 ovarian and in the test with HCT-116 colon was more than 150 µg/mL throughout.

With `O=C(NNc1ccc([N+](=O)[O-])cc1)C1OC(CO)C(O)C1O` (stereo not given), the TGI in the test with CCRF-CEM leukemia, with MALME-3M melanoma, with HOP-92 NSCLC, in the test on UO-31 renal, in the test on CAKI-1 renal and with TK-10 renal was more than 100 µM each time. Moreover, the TGI in the test on HT29 colon, in the test on UACC-257 melanoma, in the test with OVCAR-4 ovarian and in the test with HCT-116 colon was more than 100 µM in each case.

Turning to `C/C(=N\N=C(N)N)c1sc(-c2nc(C)c(/C(C)=N/N=C(N)N)s2)nc1C`, the TGI in the test with CCRF-CEM leukemia, in the test with MALME-3M melanoma, with HOP-92 NSCLC, in the test with UO-31 renal, with CAKI-1 renal and in the test on TK-10 renal was more than 100 µM in each case. Moreover, the TGI in the test with HT29 colon, in the test on UACC-257 melanoma, in the test with OVCAR-4 ovarian and in the test on HCT-116 colon was more than 100 µM throughout.

Turning to `N#CC(C#N)=C/C=C/c1cccc([N+](=O)[O-])c1`, the GI50 is 0.556 µM in the test on CCRF-CEM leukemia; 1.69 µM with MALME-3M melanoma; 2.43 µM in the test on HOP-92 NSCLC; 0.457 µM with CAKI-1 renal; 1.33 µM in the test on UACC-257 melanoma; 3.09 µM with OVCAR-4 ovarian. Also, in the test with HCT-116 colon, the GI50 was 0.277 µM. The TGI in the test with CCRF-CEM leukemia is 15.2 µM; in the test on MALME-3M melanoma, 8.87 µM; with HOP-92 NSCLC, 7.71 µM; in the test on CAKI-1 renal it was 4 µM; with UACC-257 melanoma, 3.94 µM; in the test on OVCAR-4 ovarian it was 13.9 µM. In the test on HCT-116 colon, the TGI was found to be 1.1 µM.

As to `COc1ccc(-c2nc(N)nc(-c3cc(C)ccc3O)c2Cl)cc1`, the TGI in the test on CCRF-CEM leukemia was more than 100 µM; in the test on MALME-3M melanoma, more than 100 µM; with HOP-92 NSCLC, more than 100 µM; in the test with UO-31 renal, more than 100 µM; in the test on CAKI-1 renal, more than 100 µM; with TK-10 renal, 86.4 µM. Further, the TGI in the test with HT29 colon was more than 100 µM; in the test on UACC-257 melanoma it was more than 100 µM; in the test with OVCAR-4 ovarian it was 53.3 µM; with HCT-116 colon, more than 100 µM.

As for `NC(=O)c1ccc(-c2c3ccccc3cc3c2ccc2ccccc23)cc1`, the GI50 with CCRF-CEM leukemia is 5.83 µM; in the test on MALME-3M melanoma, 4.99 µM; in the test on HOP-92 NSCLC, 6.39 µM; with UO-31 renal, 7.1 µM; with CAKI-1 renal it was 4.54 µM; with UACC-257 melanoma it was 12.1 µM. In addition, the GI50 was 5.79 µM in the test with OVCAR-4 ovarian and 2.36 µM with HCT-116 colon. The TGI was more than 100 µM in the test on CCRF-CEM leukemia; 54 µM with MALME-3M melanoma; 25.8 µM in the test with HOP-92 NSCLC; 39.5 µM in the test on UO-31 renal; 52.8 µM in the test on CAKI-1 renal; more than 100 µM with UACC-257 melanoma. Moreover, the TGI amounted to 29.7 µM with OVCAR-4 ovarian and 10.8 µM in the test on HCT-116 colon.

For the compound `Cc1ccc(C)c2sc3cc(=O)ccc-3nc12`, the TGI with CCRF-CEM leukemia was 70.3 µM; in the test with HOP-92 NSCLC, 83.3 µM; with UO-31 renal, more than 100 µM; in the test on CAKI-1 renal, 70.5 µM; with TK-10 renal, 66.8 µM; in the test with HT29 colon, more than 100 µM. The TGI in the test with UACC-257 melanoma was more than 100 µM; with OVCAR-4 ovarian, 48.1 µM; in the test on HCT-116 colon, more than 100 µM.
